The values below come from patent US20230134859A1, “METHOD FOR SCREENING FOR, METHOD FOR PRODUCING, AND METHOD FOR DESIGNING DRUG ACTIVE INGREDIENTS” (SKY PHARMA CO., LTD., priority 2020, published 2023).

One experiment has as its system cardiomyocytes. Nature of the experiment: Test Example 8: enhancement of myocardium in zebrafish embryo (nkx2.5 in situ hybridization, blood cells pumped per heartbeat). The conditions noted are these: test compounds = Compounds 1 to 7. It counts as in vivo. Here is the method:
Zebrafish embryos at 10 hours after fertilization were held with the dorsal side of the head up on a coffin (plastic plate with V-shaped grooves for holding), and a glass capillary was inserted into a midline between head and ear vesicles (heart primordium). Nitrogen gas pressure (15 picosiemens) was applied for 15 to 45 milliseconds and injected into the gap just below the neural tube. The test compound concentration was 100 μM/E3, and 0.025% (final concentration) phenol red was mixed as a tracer of the injection solution. The injection was performed in pulses with a foot pedal and continued until phenol red was distributed in an elliptical shape with a major axis of 200 μm from the insertion point. After injection, embryos were cultured at 28.5° C. for 14 hours in E3. After chorions were removed with tweezers, the embryos were fixed with 4% paraformaldehyde/PBS at normal temperature for 1 hour, and in situ hybridization was performed overnight at 65° C. in the presence of a DIG probe of nk×2.5 as a cardiac muscle marker according to a conventional method. After washing, cardiomyocytes were stained by an alkali phosphatase color reaction using an anti-DIG antibody. The stained embryos were washed with PBS, embedded in 75% glycerin/PBS and localized, and then microscopically photographed with incident light. The number of tested individuals was unified with n=80 for each compound.
In addition, the zebrafish embryos injected with the test compound by the above-described method were cultured at 28.5° C. until 48 hours after fertilization, embedded in 3% methyl cellulose/E3, and a moving image was photographed. The number of blood cells pumped in one heartbeat in time-lapse was counted n=15 and compared to Ringer injected individuals.

The subject of a further experiment is Purkinje cells. Nature of the experiment: Test Example 6: increase in Purkinje cells of adult mouse after injection into E11.5 fetal ventricle. The following applies: test compounds = Compounds 1 to 7; 100 μM injected into E11.5 fetal ventricle, counted in adult mice; vs control; N=10. Type of experiment: in vivo. Here is the method: A solution prepared by dissolving 100 μM of the test compound in physiological saline was injected into E11.5 mouse fetal ventricle. Brains of adult mouse individuals were fixed, and slice sections of cerebellar Purkinje cell layers were immunostained with an anti-d-Calbindin antibody, which is a marker of cell bodies and neurites of Purkinje cells. After staining, the number of Purkinje cells was counted, and the average value thereof was calculated.
As a control experiment (control), a similar experiment was performed using physiological saline containing no test compound.
The number of samples is 10 for each of Compounds 1 to 7 and control (N=10).

SMILES strings stand for the structures.

Take `CNS(=O)(=O)c1ccccc1Nc1nc(Nc2ccc(N3CCN(C)CC3)cc2OC)ncc1Cl` [Compound 7, 2-[[5-Chloro-2-[2-methoxy-4-(4-methylpiperazin-1-yl)anilino]pyrimidin-4-yl]amino]-N-methylbenzenesulfonamide]: the “amount of cardiomyocytes (in situ hybridization, nkx2.5)” value in the experiment with cardiomyocytes (100 μM injected at heart primordium 10 h after fertilization, vs control, n=80) is recorded as “increase in the amount of cardiomyocytes was observed”. Besides, in the experiment on cardiomyocytes (100 μM, 48 h after fertilization), the “stroke volume of blood cells (moving image of the heartbeat)” value was “remarkably improved”. Besides, in the experiment with cardiomyocytes (100 μM, 48 h after fertilization, vs control, n=15), the “number of blood cells pumped in one heartbeat” value is on record as “remarkable increase in the number of blood cells pumped in one heartbeat”. The “number of Purkinje cells in the cerebellar Purkinje cell layers” value with Purkinje cells is “significantly higher than that of the control”.
